As usually defined, the CC50 is the concentration that lowers cell viability or growth by half. Lower therefore signals greater toxicity to the cells. What is called melting point is the temperature, or range, at which the solid turns liquid.

The source of these data is US6689799B1, “1,4-dihydropyridine-5-carboxylic acid ester derivatives and method for the preparation thereof” (Rephartox, priority 1999, dated 2004).

The subject of one data set is HeLa-cells. Put plainly: Minimal toxic concentration, cell morphology of HeLa-cells. It is filed as cell-based.
Data set [1] relates to Cytomegalovirus Davis strain. Put plainly: Cytomegalovirus antiviral activity, Davis strain. In kind it is cell-based. Particulars: Human betaherpesvirus 5, read-out: IC50: concentration at which the virus production is inhibited by 50%. The protocol: (§1) The compounds were tested for antiviral activity by the Rega Institute (Leuven, Belgium). The standard experiments for determining the biological activity of the compounds according to the invention were performed with CMV (Cytomegalovirus), varicella zoster virus, and RSV (respiratory syncytial virus). [table]

Data set [2] can be described thus: Cytotoxicity, reduction of cell growth (Table 1, CMV). It is filed as cell-based. Particulars: Table 1, cytomegalovirus.
Data set [3] relates to Cytomegalovirus AD-169 strain. The experiment in a line: Cytomegalovirus antiviral activity, AD-169 strain. In kind it is cell-based. Particulars: Human betaherpesvirus 5, AD169, read-out: IC50: concentration at which the virus production is inhibited by 50%. The protocol:
as §1

Data set [4] deals with Respiratory syncytial virus. Put plainly: Respiratory syncytial virus antiviral activity. It is filed as cell-based. Particulars: human respiratory syncytial virus, read-out: IC50: concentration at which the virus production is inhibited by 50%. The protocol:
(§2) The compounds were tested for antiviral activity by the Rega Institute (Leuven, Belgium).
(§3) The standard experiments for determining the biological activity of the compounds according to the invention were performed with CMV (Cytomegalovirus), varicella zoster virus, and RSV (respiratory syncytial virus).

Data set [5] in a line: Cytotoxicity, reduction of cell growth (Table 2, VZV). It is filed as cell-based. As to conditions: Table 2, varicella zoster virus.
The test system of a further data set is TK − VZV YS/R strain. Put plainly: microbe, parasite or virus in culture. In kind it is cell-based, Varicella zoster virus. As to conditions: Human alphaherpesvirus 3, read-out: IC50: concentration at which the virus production is inhibited by 50%. The protocol: as §2, §3
Another data set concerns TK − VZV 07/1 strain. The experiment in a line: microbe, parasite or virus in culture. In kind it is cell-based, Varicella zoster virus. Particulars: Human alphaherpesvirus 3, read-out: IC50: concentration at which the virus production is inhibited by 50%. The protocol: as §2, §3
[6] abbreviates: microscopically detectable change in normal cell morphology of HeLa-cells.

Converted amounts (≈) assume the structure as drawn. Read-outs that look alike come from different tables or passages of the source.

In the case of “4-[{2-(7-Coumarinyloxy)ethoxy}phenyl)-3,5-dimethoxycarbonyl-2,6-dimethyl-1,4-dihydropyridine.ethylacetate [Example 30]”, in the data set on HeLa-cells, the “MTC: Minimal toxic concentration” value was 100 mg/mL.
Regarding `Nc1nc2c(ncn2COC(CO)CO)c(=O)[nH]1` [DHPG, 9-[(1,3-dihydroxy-2-propoxy)methyl]guanine, reference compound], the IC50 in [1] and in [3] was 1.8 µg/mL (≈ 7.05 µM) in each case. The compound also showed a CC50 in data set [2] greater than 200 µg/mL.
As to `COC(=O)C1=C(C)NC(C)=C(C(=O)OCCOc2cc(=O)oc3ccccc23)C1c1ccccc1` (centres unmarked) [Example 1, 2,6-Dimethyl-4-phenyl-5-methoxycarbonyl-3-[{2-(coumarin-4-yloxy)ethoxy}carbonyl]-1,4-dihydropyridine], the IC50 in data set [4] was determined as 2.4 µg/mL (≈ 5.05 µM); in the data set on TK − VZV YS/R strain, 1 µg/mL (≈ 2.1 µM); in the data set with TK − VZV 07/1 strain it was 1.5 µg/mL (≈ 3.15 µM). In addition, in the data set on HeLa-cells (setting [6]), the “MTC: Minimal toxic concentration” value amounted to 100 mg/mL. Moreover, the CC50 in data set [5] came to 4.5 µg/mL (≈ 9.46 µM).
As for `COC(=O)C1=C(C)NC(C)=C(C(=O)OCCCOc2cc(=O)oc3ccccc23)C1c1ccccc1` (centres unmarked) [Example 4, 3-[{3-(Coumarin-4-yloxy)-1-propoxy}carbonyl]-2,6-dimethyl-5-methoxycarbonyl-4-phenyl-1,4-dihydropyridine], the IC50 in [4] was found to be 0.16 µg/mL (≈ 0.327 µM). In the data set on HeLa-cells (setting [6]), the “MTC: Minimal toxic concentration” value amounted to 2.8 mg/mL.
`COC(=O)C1=C(C)NC(C)=C(C(=O)OCC(C)(C)COc2cc(=O)oc3ccccc23)C1c1ccccc1` (centres unmarked) [Example 6, 3-[{3-(Coumarin-4-yloxy)-2,2-dimethyl-1-propoxy}carbonyl]-2,6-dimethyl-5-methoxycarbonyl-4-phenyl-1,4-dihydropyridine]: half-maximal cytotoxicity in [5] (CC50) was put at 8.5 µg/mL (≈ 16.4 µM). The IC50 was determined as 1 µg/mL (≈ 1.93 µM) in the data set on TK − VZV YS/R strain and 2 µg/mL (≈ 3.86 µM) in the data set with TK − VZV 07/1 strain.
`CCOC(=O)C1=C(C)NC(COc2cc(=O)oc3ccccc23)=C(C(=O)OCC)C1c1cccc([N+](=O)[O-])c1` (centres unmarked) [Example 20, 2-(Coumarin-4-yloxymethyl)-3,5-diethoxycarbonyl-6-methyl-4-(3-nitrophenyl)-1,4-dihydropyridine] gave a melting point of 76 to 79 °C. The compound also returned a CC50 in data set [5] of 1.6 µg/mL (≈ 2.99 µM). The IC50 in the data set on TK − VZV YS/R strain came out at 0.05 µg/mL (≈ 0.0935 µM). The IC50 in the data set with TK − VZV 07/1 strain was determined as 0.07 µg/mL (≈ 0.131 µM).
Consider `CCOC(=O)C1=C(C)NC(COc2cc(=O)oc3ccccc23)=C(C(=O)OCC)C1c1ccccc1C(F)(F)F` (centres unmarked) [Example 24, 2-(Coumarin-4-yloxymethyl)-3,5-diethoxycarbonyl-6-methyl-4-(2-trifluoromethylphenyl)-1,4-dihydropyridine], for which the IC50 in data set [1] turned out to be 2.3 µg/mL (≈ 4.13 µM); in data set [4] it was 0.8 µg/mL (≈ 1.43 µM); in [3] it was 2.4 µg/mL (≈ 4.3 µM); in the data set with TK − VZV YS/R strain, 1.5 µg/mL (≈ 2.69 µM); in the data set on TK − VZV 07/1 strain, 2.5 µg/mL (≈ 4.48 µM). The CC50 in data set [2] and in data set [5] was greater than 200 µg/mL throughout. The “MTC: Minimal toxic concentration” value with HeLa-cells (setting [6]) turned out to be 4.0 mg/mL.
